Source: article PMC3254257 (Bioconjugate Chemistry, 2011)

Tests used:
Aqueous solubility = type: physicochemical; conditions: water
Stability in serum = type: in vitro ADME, bovine; conditions: 37°C; for relative serum stability: 100% FBS, 10 h
[1] = Tetrazine cycloaddition kinetics with norbornene; type: physicochemical; conditions: PBS pH 7.4, 37°C, 5% DMSO, excess NB
[2] = Tetrazine cycloaddition kinetics with TCO; type: physicochemical; conditions: among tetrazines of this study

Row | SMILES | aqueous solubility (Aqueous solubility) | time to formation of a precipitate in FBS (Stability in serum; FBS, serum stability could not be measured) | cycloaddition kinetics with NB compared to hydrogen substituted tetrazine 1 [1] | relative serum stability (Stability in serum) | relative cycloaddition kinetics with TCO [2]
1 | c1ccc(-c2nnc(-c3ccccc3)nn2)cc1 [3,6-diphenyl tetrazine, reference compound] | not soluble to any measurable amount | – | – | – | –
2 | Cl.NCc1ccc(-c2nnc(-c3ccccn3)nn2)cc1 [Tetrazine 3, (4-(6-(Pyridin-2-yl)-1,2,4,5-tetrazin-3-yl)phenyl)methanamine hydrochloride] | – | 1.5 to 2 h | – | – | –
3 | Cl.NCc1ccc(-c2nnc(-c3ncccn3)nn2)cc1 [Tetrazine 4, (4-(6-(Pyrimidin-2-yl)-1,2,4,5-tetrazin-3-yl)phenyl)methanamine hydrochloride] | – | – | faster kinetics | least stable | –
4 | Cc1nnc(CCCCCN)nn1.Cl [Tetrazine 6, 5-(6-Methyl-1,2,4,5-tetrazin-3-yl)pentan-1-amine hydrochloride] | extremely water soluble | – | slower cycloaddition reactions | best serum stability | slowest reaction kinetics
